Experimental findings from article PMC5750218, “Protein-inspired antibiotics active against vancomycin- and daptomycin-resistant bacteria” (Nature Communications, 2018) are described below.

Values after ≈ are worked out from the molar mass of the structure shown. Values joined by “and” are separate entries in the source; they are usually repeats but may differ in a detail not shown here. Equal entries are not always repeated. Where two headings read alike, the source gives them in different places.

For one series, the system named is S. aureus ATCC 43300. The series is described as follows: Membrane permeability assay (propidium iodide). It is filed as cell-based, Staphylococcus aureus. The conditions noted are these: for Fold higher propidium iodide fluorescence than oritavancin: 16 µg mL^−1, MRSA ATCC 43300. As to the method:
To evaluate the ability of the compounds to disrupt the cytoplasmic membrane integrity, the membrane impermeable fluorescent DNA intercalating dye propidium iodide (PI) was used. Early exponential phase cells were pelleted and washed twice in 10 mM HEPES buffer (pH 7.4) containing 50 µg mL^−1 of CaCl2 and 5 mM glucose, and then re-suspended in the same buffer (4 × 10^8 CFU mL^−1). Cell suspension was added to a 384-well black walled polystyrene plate (Corning, CLS3573) containing compounds, giving a final concentration of 16 µg mL^−1. After 1 h incubation at 37 °C, 5 µg mL^−1 of PI was added and fluorescence was monitored for 90 min using a Tecan Infinite® m1000 Pro Multi-mode reader (excitation/emission 535/620 nm). Data were corrected by subtraction of fluorescence signal arising from untreated cells in the presence of PI. […] Each sample was tested in quadruplicate and independent assays were performed twice showing similar results. Data was analysed and presented using Prism software.

Series [1] in a line: Cytotoxicity MTT assay. It is filed as cell-based, human. As to conditions: human.
Series [2] deals with Methicillin-resistant S. aureus ATCC 43300. The experiment in a line: microbe, parasite or virus in culture. The conditions noted are these: for MIC: Staphylococcus aureus. An outline of the steps: (§1)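 Each compound was serially diluted twofold in Mueller Hinton broth, spanning 8 to 0.003 µg mL^−1, and incubated with bacteria for 24 h at 37 °C before visual scoring of growth.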

Series [3] concerns Vancomycin-resistant S. aureus NARSA VRS4. The experiment in a line: microbe, parasite or virus in culture. It counts as cell-based, Staphylococcus aureus. The conditions noted are these: Staphylococcus aureus, VRSA, read-out: MIC VRSA.
Series [4] can be described thus: Cytotoxicity MTT assay. It counts as cell-based, human. The conditions noted are these: human. An outline of the steps:
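HepG2 and HEK293 cells, 1.5 × 10^4 per well in DMEM with 1% FBS, were allowed to attach for 24 h, then exposed 24 h at 37 °C to compounds at 100 µM to 0.046 µM in threefold steps. MTT (0.4 mg mL^−1) was added for 2 h, and formazan in DMSO was read at 570 nm. Viability is given as percent of control, corrected for a positive control.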
This is another data set of the same source. On the technique in general: Tetrazolium assays rely on reduction of a dye to a coloured formazan, in cell work by metabolically active cells.

In series [5] the test system is Vancomycin-intermediate S. aureus NRS1. The experiment in a line: microbe, parasite or virus in culture. As to conditions: for MIC: Staphylococcus aureus, NRS1 / VISA, read-out: MIC VISA. In a few lines:
as §1

In series [6] the test system is Multi-drug-resistant S. pneumoniae ATCC 700677. The series is described as follows: microbe, parasite or virus in culture. As to conditions: for MIC: Streptococcus pneumoniae, ATCC700677, read-out: MIC MDR S.P. In a few lines:
as §1

For series [7], the system named is Vancomycin-resistant (VanA) Enterococcus faecium ATCC 51559. The series is described as follows: microbe, parasite or virus in culture. As to conditions: for MIC: Enterococcus faecium, ATCC51559 / VRE, read-out: MIC VRE. In a few lines:
as §1

As for `CN[C@H](CC(C)C)C(=O)N[C@H]1C(=O)N[C@@H](CC(N)=O)C(=O)N[C@H]2C(=O)N[C@H]3C(=O)N[C@H](C(=O)N[C@H](C(=O)O)c4cc(O)cc(O)c4-c4cc3ccc4O)[C@H](O)c3ccc(c(Cl)c3)Oc3cc2cc(c3O[C@@H]2O[C@H](CO)[C@@H](O)[C@H](O)[C@H]2O[C@H]2C[C@](C)(N)[C@H](O)[C@H](C)O2)Oc2ccc(cc2Cl)[C@H]1O` [Compound 1, Vancomycin], the “Membrane permeabilisation (propidium iodide fluorescence)” value in the series with S. aureus ATCC 43300 (16 µg mL^−1, 1 h, MRSA ATCC 43300) was “little to no effect”. Besides, the CC50 (as a rule, the concentration that lowers cell viability or growth by half) at 24 h was 6.3 mM in the series “Cytotoxicity MTT assay [1]” (24 h, MTT, 1% FBS, read-out: Cytotoxicity CC50 HepG2) and 5.9 mM in the series “Cytotoxicity MTT assay [4]” (24 h, MTT, 1% FBS, read-out: Cytotoxicity CC50 HEK293). Also, the MIC is 1 µg/mL (≈ 0.69 µM) in series [2] (ATCC43300|MRSA, 24 h, read-out: MIC MRSA, S. aureus ATCC 43300, NBS plates, MHB, 24 h, substance alone); 1 µg/mL (≈ 0.69 µM) in series [2] (ATCC43300|MRSA, read-out: MIC S. aureus ATCC 43300 MRSA, NBS, non-binding surface plate); 2 µg/mL (≈ 1.38 µM) in series [2] (ATCC43300|MRSA, read-out: MIC S. aureus ATCC 43300 MRSA, PP, polypropylene plate); 2 µg/mL (≈ 1.38 µM) in series [2] (ATCC43300|MRSA, read-out: MIC S. aureus ATCC 43300 MRSA, PS+P-80, polystyrene plate with 0.002% polysorbate-80); 2 µg/mL (≈ 1.38 µM) in series [2] (ATCC43300|MRSA, read-out: MIC S. aureus ATCC 43300 MRSA, PS, polystyrene plate, no polysorbate-80); over 64 µg/mL in series [3]. Moreover, the values for the MIC in series [5], in series [6] and in series [7] were 4 µg/mL (≈ 2.76 µM), 1 µg/mL (≈ 0.69 µM) and over 64 µg/mL, respectively.

For `CN[C@H]1C(=O)N[C@@H]2Cc3ccc(cc3)Oc3cc4cc(c3O[C@@H]3O[C@H](C(=O)O)[C@@H](O)[C@H](O)[C@H]3NC(=O)CCCCCCCCC(C)C)Oc3ccc(cc3Cl)[C@@H](O)[C@@H]3NC(=O)[C@H](NC(=O)[C@@H]4NC(=O)[C@@H](NC2=O)c2cc(cc(O)c2Cl)Oc2cc1ccc2O)c1ccc(O)c(c1)-c1c(O[C@H]2O[C@H](CO)[C@@H](O)[C@H](O)[C@@H]2O)cc(O)cc1[C@@H](C(=O)NCCCN(C)C)NC3=O` [Compound 3, Dalbavancin], in the series on S. aureus ATCC 43300, the “Membrane permeabilisation (propidium iodide fluorescence)” value was “little to no effect”. Further, in series [2] (S. aureus ATCC 43300, NBS plates, MHB, 24 h, substance alone), the “MIC MRSA” value is 0.06 µg/mL and 0.03 µg/mL. Besides, the “MIC S. aureus ATCC 43300 MRSA, NBS” value in series [2] (non-binding surface plate) is at most 0.016 µg/mL. In addition, in series [2] (polypropylene plate), the “MIC S. aureus ATCC 43300 MRSA, PP” value was 0.063 µg/mL (≈ 0.0347 µM). In addition, in series [2] (polystyrene plate with 0.002% polysorbate-80), the “MIC S. aureus ATCC 43300 MRSA, PS+P-80” value was at most 0.016 µg/mL. For the same compound, the “MIC S. aureus ATCC 43300 MRSA, PS” value in series [2] (polystyrene plate, no polysorbate-80) was determined as 0.25 µg/mL (≈ 0.138 µM). In addition, the “MIC VISA” value in series [5] (S. aureus NRS1) is 1 µg/mL (≈ 0.55 µM). Further, in series [6] (S. pneumoniae ATCC 700677), the “MIC MDR S.P.” value was determined as 0.09 µg/mL (≈ 0.0495 µM). For the same compound, the “MIC VRE” value in series [7] (E. faecium MDR VanA ATCC 51559, substance alone) was over 8 µg/mL.

With `CCCCCCCCCC(=O)N[C@@H](Cc1c[nH]c2ccccc12)C(=O)N[C@H](CC(N)=O)C(=O)N[C@@H](CC(=O)O)C(=O)N[C@@H]1C(=O)NCC(=O)N[C@@H](CCCN)C(=O)N[C@@H](CC(=O)O)C(=O)N[C@H](C)C(=O)N[C@@H](CC(=O)O)C(=O)NCC(=O)N[C@H](CO)C(=O)N[C@@H]([C@H](C)CC(=O)O)C(=O)N[C@@H](CC(=O)c2ccccc2N)C(=O)O[C@@H]1C` [Compound 4, Daptomycin], the “Fold higher propidium iodide fluorescence than oritavancin” value with S. aureus ATCC 43300 (listed as Daptomycin) is recorded as 4–6 fold; in the series on S. aureus ATCC 43300 (listed as daptomycin), “approximately 6 fold”. Further, the CC50 at 24 h in the series “Cytotoxicity MTT assay [1]” and in “Cytotoxicity MTT assay [4]” was over 0.5 mM in each case. Moreover, the MIC is 2 µg/mL (≈ 1.23 µM) in series [2] (ATCC43300 / MRSA, 24 h, read-out: MIC MRSA); 1 µg/mL (≈ 0.617 µM) in series [2] (ATCC43300|MRSA, read-out: MIC S. aureus ATCC 43300 MRSA, NBS); 1 µg/mL (≈ 0.617 µM) in series [2] (ATCC43300|MRSA, read-out: MIC S. aureus ATCC 43300 MRSA, PP); 1 µg/mL (≈ 0.617 µM) in series [2] (ATCC43300|MRSA, read-out: MIC S. aureus ATCC 43300 MRSA, PS); 1 µg/mL (≈ 0.617 µM) in series [2] (ATCC43300|MRSA, read-out: MIC S. aureus ATCC 43300 MRSA, PS+P-80); 3 µg/mL (≈ 1.85 µM) in series [3] (S. aureus NARSA VRS4). The MIC came to 12 µg/mL (≈ 7.4 µM) in series [5], 2 µg/mL (≈ 1.23 µM) in series [6] and 16 µg/mL (≈ 9.87 µM) in series [7].
